One experiment relates to MII oocytes. Kind of experiment: Intracellular calcium measurement (fura-2). The following applies: oocytes exposed to TPEN 5, 10, and 200 μM. Format: cell-based, pig. The procedure: The zonae pellucidae were removed after maturation and zona-free oocytes were loaded with the Ca^2+ indicator dye, fura-2. For this purpose, they were incubated in the presence of […] of the acetoxymethyl ester form of the dye and 0.02% pluronic F-127 for 40-50 min (both from Invitrogen). The dye loaded oocytes were transferred into a chamber with a cover-glass bottom and the chamber was then placed on the heated stage of an inverted microscope. Changes in the intracellular free Ca^2+ concentration were recorded using InCytIm2, a dual-wavelength fluorescence imaging system (Intracellular Imaging, Inc.; Cincinnati, Ohio). During measurements the emitted fluorescence was detected at 510 nm after exciting the dye alternately at 340 and 380 nm. The ratio of the two emitted fluorescence intensities was calculated and the data are presented as fluorescence ratio values. Ratios of 1.0 and 5.0 correspond to about 100 and 1,200 nM Ca^2+, respectively. In each treatment group the measurements were repeated at least 5 times using different oocytes.
On the technique in general: A change in cytosolic calcium serves as a functional read-out for many receptors and channels.

The test system of a further experiment is porcine oocytes. Put plainly: TPEN as main oocyte activating reagent after a smaller Ca2+ increase (electroporation in 0.1 mM Ca2+). The experiment is classed as cell-based, pig. As to conditions: for Day 6 Blastocysts (%) / Day 7 Blastocysts (%): 0.1 mM Ca2+ electroporation. As to the method:
Oocytes were obtained from either pre-pubertal gilt ovaries from an abattoir (Farmland Foods Inc., Milan, Mo.), or sow-derived oocytes that were purchased from Applied Reproductive Technology (Madison, Wis.). Immature oocytes from gilt ovaries were aspirated from medium size (3-6 mm) follicles by using an 18 gauge hypodermic needle attached to a 10 mL syringe. Oocytes with evenly dark cytoplasm and intact surrounding cumulus cells were then selected for maturation. Around 50 cumulus oocyte complexes were place in a well containing 500 μL of maturation medium, TCM 199 (Invitrogen, Grand Island, N.Y.) with 3.05 mM glucose, 0.91 mM sodium pyruvate, 0.57 mM cysteine, 10 ng/mL epidermal growth factor (EGF), 0.5 mg/mL luteinizing hormone (LH), 0.5 mg/mL follicle stimulating hormone (FSH), 10 ng/mL gentamicin (APP Pharm, Schaumburg, Ill.), and 0.1% polyvinyl alcohol (PVA) for 42-44 hr at 38.5° C., 5% CO2, in humidified air. […] At the end of the maturation, the surrounding cumulus cells were removed from the oocytes by vortexing for 3 min in the presence of 0.1% hyaluronidase. Oocytes with a visible polar body were selected in manipulation medium (TCM199 with 0.6 mM NaHCO3, 2.9 mM Hepes, 30 mM NaCl, 10 ng/mL gentamicin, and 3 mg/mL bovine serum albumin [BSA]; and osmolarity of 305) and then used for the experiments. Different oocyte activation methods were used for the experiments. As conventional activation methods, either electrical or chemical activation was used. For electrical activation, mature oocytes were activated in activation medium (0.3 M mannitol, 1.0 mM CaCl2, 0.1 mM MgCl2, and 0.5 mM Hepes) by two direct-current (DC) pulses (1-sec interval) at 1.2 kV/cm for 30 μsec (using BTX Electro Cell Manipulator, Harvard Apparatus, Holliston, Mass.). […] For TPEN mediated activation, mature oocytes were incubated in TL-Hepes media with various concentrations of TPEN for different durations. […] At the end of the culture, where applicable, the frequency of cleaved embryos and blastocysts, and total cell number in the blastocysts were recorded. Hoechst 33342 (1.2 mg/mL) was used to stain nuclei and the embryos were then evaluated by epi-fluorescence microscopy. […] The ability of TPEN as the main activating reagent was therefore tested. […] Then the oocytes were incubated with various concentrations (1 μM, 5 μM, 10 μM, 100 μM and 200 μM) and durations (10 minutes, 20 minutes, 30 minutes, 1 hour, 2 hours, and overnight) of TPEN. […] Optimal oocyte activation was observed when oocytes were activated by a smaller Ca^2+ signal followed by incubating in 200 μM TPEN for 30 min.

Several values for one entry are separate records, joined by “and”; a condition that tells them apart may be missing. Equal entries are not always repeated. Entries after “also recorded” stand apart in the source; their conditions may differ. Marks after values point to notes of the source that are not given here.

`c1ccc(CN(CCN(Cc2ccccn2)Cc2ccccn2)Cc2ccccn2)nc1` [TPEN, N,N,N′,N′-tetrakis(2-pyridylmethyl)ethane-1,2-diamine]: in the experiment on MII oocytes, the “intracellular Ca2+ increase” value is reported as “does not induce a Ca^2+ increase; also recorded: no Ca^2+ increase was detected”. The “cell numbers in day 7 blastocysts” value with porcine oocytes (1 μM TPEN overnight) amounted to 24.80±7.84; with porcine oocytes (10 μM TPEN for 1 hour), 30.17±5.97; in the experiment on porcine oocytes (10 μM TPEN for 2 hours), 29.63±10.47; in the experiment on porcine oocytes (100 μM TPEN for 20 minutes), 50.75±17.94. Moreover, the “number of blastocysts at day 6 and 7” value in the experiment with porcine oocytes (1 μM TPEN overnight) was “increased number of blastocysts”. The “Day 6 Blastocysts (%)” value in the experiment on porcine oocytes (then TPEN 10 μM, 30 min) was 0% and 0^b %; in the experiment on porcine oocytes (then TPEN 10 μM, 1 hour), 15^a %; with porcine oocytes (then TPEN 10 μM, 2 hours), 15^a %; with porcine oocytes (then TPEN 100 μM, 10 min), 15^a %; in the experiment on porcine oocytes (then TPEN 100 μM, 20 min) it was 25^a %; with porcine oocytes (then TPEN 200 μM, 30 min), 37.04^c %. For the same molecule, in the experiment on porcine oocytes (then TPEN 200 μM, 1 hour), the “Day 6 Blastocysts (%)” value is recorded as 18.75^a %. The “Day 7 Blastocysts (%)” value was 5^b % in the experiment on porcine oocytes (then TPEN 10 μM, 30 min); 22.5^a % in the experiment with porcine oocytes (then TPEN 10 μM, 1 hour); 25^a % with porcine oocytes (then TPEN 10 μM, 2 hours); 15^a % with porcine oocytes (then TPEN 100 μM, 10 min); 30^a % with porcine oocytes (then TPEN 100 μM, 20 min); 41.98^c % in the experiment on porcine oocytes (then TPEN 200 μM, 30 min). Besides, the “Day 7 Blastocysts (%)” value in the experiment with porcine oocytes (then TPEN 200 μM, 1 hour) is 27.5^a %.

The values above are taken from patent US10190093B2, “Artificial oocyte activation” (The Curators of the University of Missouri, priority 2013, dated 2019).
